Source: patent publication US12091426B2, “Bifunctional degraders of hematopoietic progenitor kinase and therapeutic uses thereof” (Nurix Therapeutics, Inc., priority 2021, dated 2024)

Biological target: T1, HPK1 (Homo sapiens, UniProt Q92918)
T1 construct: A HiBiT tag was introduced by CRISPR on the N terminus of HPK1 in Jurkat cells; host or cells: Jurkat cells (ATCC TIB-152), monoclonal line with CRISPR knock-in of HiBiT at the endogenous HPK1 locus
Assay: HPK1 Cellular HiBit Degradation Assay
Format: cell-based
Settings: HiBiT HPK1 Jurkat cells, 24 hrs; for DC50: concentration at which 50% of HPK1 was remaining, read-out: DC50 Category; for Dmax: Jurkat, maximum degradation vs DMSO vehicle control, read-out: Dmax Category
Summary of the method: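 HPK1 levels are read by HiBiT luminescence after 24 h exposure of HiBiT-knock-in Jurkat cells to compound at 10 uM–0.1 nM final (11 points). Relative to DMSO (100%), DC50 is the concentration leaving 50% HPK1 from a variable-slope fit, and Dmax is 100 minus minimum remaining. Viability checked in-plate.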

T1 sequence (Q92918 whole entry): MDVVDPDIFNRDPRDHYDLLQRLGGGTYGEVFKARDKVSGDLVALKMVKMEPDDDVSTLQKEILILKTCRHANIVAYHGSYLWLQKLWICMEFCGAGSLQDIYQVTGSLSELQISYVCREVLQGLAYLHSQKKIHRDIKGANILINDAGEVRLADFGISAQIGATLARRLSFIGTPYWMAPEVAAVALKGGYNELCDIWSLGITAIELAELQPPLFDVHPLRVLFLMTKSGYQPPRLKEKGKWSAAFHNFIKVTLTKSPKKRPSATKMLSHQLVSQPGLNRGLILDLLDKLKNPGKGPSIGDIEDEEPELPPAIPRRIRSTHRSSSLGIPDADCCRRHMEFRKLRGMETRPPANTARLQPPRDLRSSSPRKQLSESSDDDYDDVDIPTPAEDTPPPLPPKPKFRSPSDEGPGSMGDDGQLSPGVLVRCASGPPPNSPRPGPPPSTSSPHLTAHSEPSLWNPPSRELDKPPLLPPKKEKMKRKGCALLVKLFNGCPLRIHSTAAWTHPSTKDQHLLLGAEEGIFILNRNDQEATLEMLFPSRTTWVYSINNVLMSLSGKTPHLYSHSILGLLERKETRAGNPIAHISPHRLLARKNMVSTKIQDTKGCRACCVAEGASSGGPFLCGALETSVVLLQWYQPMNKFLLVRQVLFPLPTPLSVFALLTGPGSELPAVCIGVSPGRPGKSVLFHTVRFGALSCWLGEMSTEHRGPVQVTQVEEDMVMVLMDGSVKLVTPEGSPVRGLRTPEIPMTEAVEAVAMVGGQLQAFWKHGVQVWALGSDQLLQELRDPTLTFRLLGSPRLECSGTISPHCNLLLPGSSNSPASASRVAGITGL

| Structure (SMILES) | DC50 [µM] | Dmax [%] |
| --- | --- | --- |
| CC(C)n1cnc2cc(-c3ccc4c(c3)N([C@H]3C[C@@H](N5CCCCC5)C3)C(=O)C43CCN(C(=O)C4(C)CCN(C(=O)C5CCN(c6ccc(C7CCC(=O)NC7=O)cn6)CC5)CC4)CC3)nc(NC3CC4(COC4)C3)c21 (stereo partly drawn) [Example 177, 3-(6-{4-[4-methyl-4-({6-[4-({2-oxaspiro[3.3]heptan-6-yl}amino)-3-(propan-2-yl)-3H-imidazo[4,5-c]pyridin-6-yl]-2-oxo-1-[(1S,3S)-3-(piperidin-1-yl)cyclobutyl]-1,2-dihydrospiro[indole-3,4′-piperidin]-1′-yl}carbonyl)piperidine-1-carbonyl]piperidin-1-yl}pyridin-3-yl)piperidine-2,6-dione] | < 0.1 | 70 to 85 |
| CC(C)n1cnc2cc(-c3ccc4c(c3)N([C@H]3C[C@@H](N5CC6CCC(C5)O6)C3)C(=O)C43CCN(C(=O)C4(C)CCN(C(=O)C5CCN(c6ccc(C7CCC(=O)NC7=O)cc6)CC5)CC4)CC3)nc(NC3CC3)c21 (mixture of isomers) [Example 197] | 0.1 to 0.5 | 50 to 70 |
| CC(C)n1cnc2cc(-c3ccc4c(c3)N([C@H]3C[C@@H](N5CCCCC5)C3)C(=O)C43CCN(C(=O)[C@H]4CCN(C(=O)C5CCN(c6ccc(C7CCC(=O)NC7=O)cn6)CC5)C4)CC3)nc(NC3CC3)c21 (mixture of isomers) [Example 32, (3RS)-3-(6-{4-[(3S)-3-({6-[4-(cyclopropylamino)-3-(propan-2-yl)-3H-imidazo[4,5-c]pyridin-6-yl]-2-oxo-1-[(1S,3S)-3-(piperidin-1-yl)cyclobutyl]-1,2-dihydrospiro[indole-3,4′-piperidin]-1′-yl}carbonyl)pyrrolidine-1-carbonyl]piperidin-1-yl}pyridin-3-yl)piperidine-2,6-dione] | 0.1 to 0.5 | 50 to 70 |
| CC(C)n1cnc2cc(-c3ccc4c(c3)N([C@H]3C[C@@H](N5CCCCC5)C3)C(=O)C43CCN(C(=O)C4(C5CCN(C(=O)C6CCN(c7ccc(C8CCC(=O)NC8=O)cn7)CC6)CC5)CCC4)CC3)nc(NC3CC3)c21 (mixture of isomers) [Example 300, (3RS)-3-[6-(4-{4-[1-({6-[4-(cyclopropylamino)-3-(propan-2-yl)-3H-imidazo[4,5-c]pyridin-6-yl]-2-oxo-1-[(1S,3S)-3-(piperidin-1-yl)cyclobutyl]-1,2-dihydrospiro[indole-3,4′-piperidin]-1′-yl}carbonyl)cyclobutyl]piperidine-1-carbonyl}piperidin-1-yl)pyridin-3-yl]piperidine-2,6-dione] | < 0.1 | 70 to 85 |
| CC(C)n1cnc2cc(-c3ccc4c(c3)N([C@H]3C[C@@H](N5CCCCC5)C3)C(=O)C43CCN(C(=O)[C@]4(C)CCN(C(=O)C5CCN(c6ccc(C7CCC(=O)NC7=O)cn6)CC5)C4)CC3)nc(NC3CC3)c21 (mixture of isomers) [Example 186, (3RS)-3-(6-{4-[(3R)-3-({6-[4-(cyclopropylamino)-3-(propan-2-yl)-3H-imidazo[4,5-c]pyridin-6-yl]-2-oxo-1-[(1S,3S)-3-(piperidin-1-yl)cyclobutyl]-1,2-dihydrospiro[indole-3,4′-piperidin]-1′-yl}carbonyl)-3-methylpyrrolidine-1-carbonyl]piperidin-1-yl}pyridin-3-yl)piperidine-2,6-dione] | 0.1 to 0.5 | 70 to 85 |

Further lines, results first:

| DC50 [µM] | Dmax [%] | Structure (SMILES) |
| --- | --- | --- |
| < 0.1 | > 85 | CC(C)n1cnc2cc(-c3ccc4c(c3)N([C@H]3C[C@@H](N5CCCCC5)C3)C(=O)C43CCN(C(=O)[C@H]4CC[C@H](C(=O)N5CCC(N(C)c6ccc(C7CCC(=O)NC7=O)cn6)CC5)CC4)CC3)nc(Nc3ccccc3F)c21 (mixture of isomers) [Example 138, (3RS)-3-{6-[methyl({1-[(1R,4R)-4-[(6-{4-[(2-fluorophenyl)amino]-3-(propan-2-yl)-3H-imidazo[4,5-c]pyridin-6-yl}-2-oxo-1-[(1S,3S)-3-(piperidin-1-yl)cyclobutyl]-1,2-dihydrospiro[indole-3,4′-piperidin]-1′-yl)carbonyl]cyclohexanecarbonyl]piperidin-4-yl})amino]pyridin-3-yl}piperidine-2,6-dione] |
| 0.1 to 0.5 | 70 to 85 | CC(C)n1cnc2cc(-c3ccc4c(c3)N([C@H]3C[C@@H](N5CCCCC5)C3)C(=O)C43CCN(C(=O)C4CCN(C(=O)C5CCN(c6ccc(C7CCC(=O)NC7=O)cn6)CC5)CC4)CC3)nc(NC3CC3)c21 (stereo partly drawn) [Example 73, 3-(6-(4-(4-(6-(4-(cyclopropylamino)-3-isopropyl-3H-imidazo[4,5-c]pyridin-6-yl)-2-oxo-1-((1S,3S)-3-(piperidin-1-yl)cyclobutyl)spiro[indoline-3,4′-piperidine]-1′-carbonyl)piperidine-1-carbonyl)piperidin-1-yl)pyridin-3-yl)piperidine-2,6-dione] |
| < 0.1 | > 85 | CC(C)n1cnc2cc(-c3ccc4c(c3)N([C@H]3C[C@@H](N5CCCCC5)C3)C(=O)C43CCN(C(=O)[C@@H]4CCN(C(=O)[C@H]5CC[C@H](Nc6ccc(C7CCC(=O)NC7=O)cc6)CC5)C4)CC3)nc(Nc3ccccc3F)c21 (mixture of isomers) [Example 3, (3RS)-3-(4-{[(1R,4R)-4-[(3R)-3-[(6-{4-[(2-fluorophenyl)amino]-3-(propan-2-yl)-3H-imidazo[4,5-c]pyridin-6-yl}-2-oxo-1-[(1S,3S)-3-(piperidin-1-yl)cyclobutyl]-1,2-dihydrospiro[indole-3,4′-piperidin]-1′-yl)carbonyl]pyrrolidine-1-carbonyl]cyclohexyl]amino}phenyl)piperidine-2,6-dione] |
| < 0.1 | 70 to 85 | CC(C)n1cnc2cc(-c3ccc4c(c3)N([C@H]3C[C@@H](N5CCCCC5)C3)C(=O)C43CCN(C(=O)[C@@H]4CCN(C(=O)C5CCN(c6ccc(N7CCC(=O)NC7=O)cc6)CC5)C4)CC3)nc(NC3CC3)c21 [Example 233, 1-(4-{4-[(3R)-3-({6-[4-(cyclopropylamino)-3-(propan-2-yl)-3H-imidazo[4,5-c]pyridin-6-yl]-2-oxo-1-[(1S,3S)-3-(piperidin-1-yl)cyclobutyl]-1,2-dihydrospiro[indole-3,4′-piperidin]-1′-yl}carbonyl)pyrrolidine-1-carbonyl]piperidin-1-yl}phenyl)-1,3-diazinane-2,4-dione] |
| < 0.1 | > 85 | CC(C)n1cnc2cc(-c3ccc4c(c3)N([C@H]3C[C@@H](N5CCCCC5)C3)C(=O)C43CCN(C(=O)[C@@H]4CCN(C(=O)C5CCN(c6ccc(C7CCC(=O)NC7=O)cn6)CC5)C4)CC3)nc(Nc3ccccc3F)c21 (stereo partly drawn) [Example 24, 3-(6-(4-((R)-3-(6-(4-((2-fluorophenyl)amino)-3-isopropyl-3H-imidazo[4,5-c]pyridin-6-yl)-2-oxo-1-((1s,3S)-3-(piperidin-1-yl)cyclobutyl)spiro[indoline-3,4′-piperidine]-1′-carbonyl)pyrrolidine-1-carbonyl)piperidin-1-yl)pyridin-3-yl)piperidine-2,6-dione] |
| 0.5 to 1 | 50 to 70 | Cc1cc(F)c(Nc2nc(-c3ccc4c(c3)N([C@H]3C[C@@H](N5CCCCC5)C3)C(=O)C43CCN(C(=O)CC4CCN(C(=O)C5CCN(C(=O)CNc6cccc7c6C(=O)N(C6CCC(=O)NC6=O)C7=O)CC5)CC4)CC3)cc3ncn(C(C)C)c23)cc1C(=O)NC(C)C (mixture of isomers) [Example 99, 5-[(6-{1′-[2-(1-{1-[2-({2-[(3RS)-2,6-dioxopiperidin-3-yl]-1,3-dioxo-2,3-dihydro-1H-isoindol-4-yl}amino)acetyl]piperidine-4-carbonyl}piperidin-4-yl)acetyl]-2-oxo-1-[(1S,3S)-3-(piperidin-1-yl)cyclobutyl]-1,2-dihydrospiro[indole-3,4′-piperidin]-6-yl}-3-(propan-2-yl)-3H-imidazo[4,5-c]pyridin-4-yl)amino]-4-fluoro-2-methyl-N-(propan-2-yl)benzamide] |
| 0.5 to 1 | 50 to 70 | Cc1cc(F)c(Nc2nc(-c3ccc4c(c3)N([C@H]3C[C@@H](N5CCCCC5)C3)C(=O)C43CCN(C(=O)c4cc(C(=O)N5CCN(c6ccc7c(c6)C(=O)N(C6CCC(=O)NC6=O)C7=O)CC5)n(C)n4)CC3)cc3ncn(C(C)C)c23)cc1C(=O)NC(C)C (mixture of isomers) [Example 145, 5-[(6-{1′-[5-(4-{2-[(3RS)-2,6-dioxopiperidin-3-yl]-1,3-dioxo-2,3-dihydro-1H-isoindol-5-yl}piperazine-1-carbonyl)-1-methyl-1H-pyrazole-3-carbonyl]-2-oxo-1-[(1S,3S)-3-(piperidin-1-yl)cyclobutyl]-1,2-dihydrospiro[indole-3,4′-piperidin]-6-yl}-3-(propan-2-yl)-3H-imidazo[4,5-c]pyridin-4-yl)amino]-4-fluoro-2-methyl-N-(propan-2-yl)benzamide] |
| < 0.1 | 70 to 85 | CC(C)n1cnc2cc(-c3ccc4c(c3)N([C@H]3C[C@@H](N5CCCCC5)C3)C(=O)C43CCN(C(=O)C4(C)CCN(C(=O)CC5CCN(c6ccc(C7CCC(=O)NC7=O)cn6)CC5)CC4)CC3)nc(NC3CC3)c21 (mixture of isomers) [Example 221, (3RS)-3-[6-(4-{2-[4-({6-[4-(cyclopropylamino)-3-(propan-2-yl)-3H-imidazo[4,5-c]pyridin-6-yl]-2-oxo-1-[(1S,3S)-3-(piperidin-1-yl)cyclobutyl]-1,2-dihydrospiro[indole-3,4′-piperidin]-1′-yl}carbonyl)-4-methylpiperidin-1-yl]-2-oxoethyl}piperidin-1-yl)pyridin-3-yl]piperidine-2,6-dione] |
